Source: patent US20240116985A1, “STAPLED PEPTIDES AND METHODS THEREOF” (priority 2020, published 2024)
Values after ≈ are worked out from the molar mass of the structure shown. Like-named read-outs stand apart in the source and are kept apart here.

Experiments:
[1] = target: T1, full-length beta-Catenin (Uniprot ID P35222) (Homo sapiens, UniProt P35222); assay: Fluorescence polarization IC50 (beta-catenin / 5FAM-TCF4 10-53 competition); type: binding
T1 construct: 10 nM full-length beta-Catenin (Uniprot ID P35222)
T1 sequence (P35222 1-781): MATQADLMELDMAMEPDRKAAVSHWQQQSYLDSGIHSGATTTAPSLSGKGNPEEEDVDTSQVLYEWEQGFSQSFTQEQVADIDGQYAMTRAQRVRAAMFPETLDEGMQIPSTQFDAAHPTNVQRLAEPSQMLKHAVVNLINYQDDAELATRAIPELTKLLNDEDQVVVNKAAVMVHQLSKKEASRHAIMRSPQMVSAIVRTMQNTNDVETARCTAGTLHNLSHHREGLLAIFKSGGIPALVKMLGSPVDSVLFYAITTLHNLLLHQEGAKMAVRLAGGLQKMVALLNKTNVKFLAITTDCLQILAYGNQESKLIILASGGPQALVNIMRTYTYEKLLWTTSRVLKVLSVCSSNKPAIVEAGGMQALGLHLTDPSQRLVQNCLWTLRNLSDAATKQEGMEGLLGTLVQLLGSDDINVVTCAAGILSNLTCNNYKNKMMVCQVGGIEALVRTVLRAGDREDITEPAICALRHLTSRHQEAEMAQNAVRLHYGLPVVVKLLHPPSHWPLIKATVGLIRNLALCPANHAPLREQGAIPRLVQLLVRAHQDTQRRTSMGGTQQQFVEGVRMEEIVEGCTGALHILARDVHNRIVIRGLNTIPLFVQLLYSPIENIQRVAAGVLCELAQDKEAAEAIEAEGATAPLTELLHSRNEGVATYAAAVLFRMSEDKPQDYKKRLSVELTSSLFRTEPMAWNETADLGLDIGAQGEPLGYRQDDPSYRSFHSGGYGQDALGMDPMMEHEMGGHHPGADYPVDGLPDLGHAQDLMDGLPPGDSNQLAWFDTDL

CHI Log D procedure = type: physicochemical
Solubility in PBS = type: physicochemical
Method in brief: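 The PBS solution was ultracentrifuged and the supernatant analyzed by HPLC. Its peak area was divided by that of a 50 μM peptide DMSO reference injection and multiplied by 50 uM to give solubility.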

[2] = FP EC50 (nM), fluorescence polarization, beta-catenin
[3] = fluorescence polarization, beta-catenin, read-out: FP EC50

C[C@@H]1NC(=O)[C@H](C)NC(=O)[C@H](CN(CC(=O)O)CC(F)(F)F)NC(=O)[C@H](CC(=O)O)NC(=O)C2(CCCC=CCCCOC(=O)N3CC[C@@](C(=O)N[C@@H](Cc4ccccc4Cl)C(=O)N[C@@H](Cc4csc5ccccc45)C(=O)N[C@@H](CCC(N)=O)C(N)=O)(C3)NC(=O)[C@H]([C@@H](C)O)NC(=O)[C@H](Cc3ccccc3)NC1=O)CCCC=CC[C@]1(CCCN1C(=O)CN=[N+]=[N-])C(=O)N[C@@H](CC(=O)O)C(=O)N[C@@H](CC(C)(C)C)C(=O)N2 (stereo partly drawn) [I-1059, AzAc-PL3-Asp-Npg-B5-Asp-TfeGA-Ala-Ala-Phe-Thr-PyrS2-2C1F-BztA-Gln-NH2]
IC50 [1, 2]: 42 nM | chromatographic logD (CHI Log D procedure; pH 7.4): 2.44 | Solubility (Solubility in PBS): 42 µM (≈ 87.6 µg/mL)

C[C@@H]1NC(=O)[C@H](C)NC(=O)[C@H](CC(=O)O)NC(=O)[C@H](CC(=O)O)NC(=O)C2(CCCC=CCCCOC(=O)N3CC[C@@](C(=O)N[C@@H](Cc4ccccc4Cl)C(=O)N[C@@H](Cc4csc5ccccc45)C(=O)N[C@@H](C(N)=O)[C@H](C)O)(C3)NC(=O)[C@H]([C@@H](C)O)NC(=O)[C@H](Cc3ccccc3)NC1=O)CCCC=CC[C@]1(CCCN1C(=O)CN=[N+]=[N-])C(=O)N[C@@H](CC(=O)O)C(=O)N[C@@H](CC(C)(C)C)C(=O)N2 (stereo partly drawn) [I-1060, AzAc-PL3-Asp-Npg-B5-Asp-Asp-Ala-Ala-Phe-Thr-PyrS2-2C1F-BztA-dThr-NH2]
IC50 [1, 2]: 38 nM | chromatographic logD (CHI Log D procedure; pH 7.4): 2.6 | Solubility (Solubility in PBS): 10 µM (≈ 19.5 µg/mL)

CC(=O)N1CCC[C@]12CC=CCCCC1(CCCC=CCCCOC(=O)N3CC[C@@](C(=O)N[C@@H](Cc4ccccc4Cl)C(=O)N[C@@H](Cc4csc5ccccc45)C(=O)N[C@@H](CCC(N)=O)C(N)=O)(C3)NC(=O)[C@H](CC(C)C)NC(=O)[C@H](Cc3ccccc3)NC(=O)[C@H](C)NC(=O)[C@H](C)NC(=O)[C@H](CCC(=O)O)NC(=O)[C@H](CC(=O)O)NC1=O)NC(=O)[C@H](CC(C)(C)C)NC(=O)[C@H](CC(=O)O)NC2=O (stereo partly drawn) [I-1063, Ac-PL3-Asp-Npg-B5-Asp-Glu-Ala-Ala-Phe-Leu-PyrS2-2C1F-BztA-Gln-NH2]
IC50 ([1]; read-out: beta-Catenin FP IC50): 471 nM | chromatographic logD (CHI Log D procedure; pH 7.4, CHI Log D): 1.64 | Solubility (Solubility in PBS; Solubility (uM)): 43 µM (≈ 84.3 µg/mL)

CC(=O)N1CCC[C@]12CC=CCCCC1(CCCC=CCCCOC(=O)N3CC[C@@](C(=O)N[C@@H](Cc4ccccc4Cl)C(=O)N[C@@H](Cc4csc5ccccc45)C(=O)N[C@@H](CO)C(N)=O)(C3)NC(=O)[C@H](CC(C)C)NC(=O)[C@H](Cc3ccccc3)NC(=O)[C@H](C)NC(=O)[C@H](C)NC(=O)[C@H](CC(=O)O)NC(=O)[C@H](CC(=O)O)NC1=O)NC(=O)[C@H](CC(C)(C)C)NC(=O)[C@H](CC(=O)O)NC2=O (stereo partly drawn) [I-1064, Ac-PL3-Asp-Npg-B5-Asp-Asp-Ala-Ala-Phe-Leu-PyrS2-2C1F-BztA-Ser-NH2]
IC50 [1, 3]: 414 nM | IC50 ([1]; read-out: beta-Catenin FP IC50): 414 nM | CHI Log D (CHI Log D procedure; pH 7.4): 1.967 | Solubility (Solubility in PBS): 29 µM (≈ 55.2 µg/mL)

CC(=O)N1CCC[C@]12CC=CCCCC1(CCCC=CCCCOC(=O)N3CC[C@@](C(=O)N[C@@H](Cc4ccccc4Cl)C(=O)N[C@@H](Cc4csc5ccccc45)C(=O)N[C@@H](CO)C(N)=O)(C3)NC(=O)[C@H](CC(C)C)NC(=O)[C@H](Cc3ccccc3)NC(=O)[C@H](C)NC(=O)[C@H](C)NC(=O)[C@H](CCC(=O)O)NC(=O)[C@H](CC(=O)O)NC1=O)NC(=O)[C@H](CC(C)(C)C)NC(=O)[C@H](CC(=O)O)NC2=O (stereo partly drawn) [I-1066, Ac-PL3-Asp-Npg-B5-Asp-Glu-Ala-Ala-Phe-Leu-PyrS2-2C1F-BztA-Ser-NH2]
IC50 [1, 3]: 789 nM | IC50 ([1]; read-out: beta-Catenin FP IC50): 789 nM | CHI Log D (CHI Log D procedure; pH 7.4): 2.024 | Solubility (Solubility in PBS): 10 µM (≈ 19.2 µg/mL)

CC(=O)N1CCC[C@]12CC=CCCCC1(CCCC=CCCCOC(=O)N3CC[C@@](C(=O)N[C@@H](Cc4ccccc4Cl)C(=O)N[C@@H](Cc4csc5ccccc45)C(=O)N[C@H](C(N)=O)[C@@H](C)O)(C3)NC(=O)[C@H](CC(C)C)NC(=O)[C@H](Cc3ccccc3)NC(=O)[C@H](C)NC(=O)[C@H](C)NC(=O)[C@H](CC(=O)O)NC(=O)[C@H](CC(=O)O)NC1=O)NC(=O)[C@H](CC(C)(C)C)NC(=O)[C@H](CC(=O)O)NC2=O (stereo partly drawn) [I-1068, Ac-PL3-Asp-Npg-B5-Asp-Asp-Ala-Ala-Phe-Leu-PyrS2-2C1F-BztA-Thr-NH2]
IC50 [1, 3]: 950 nM | IC50 ([1]; read-out: beta-Catenin FP IC50): 950 nM | CHI Log D (CHI Log D procedure; pH 7.4): 2.053 | Solubility (Solubility in PBS): 13 µM (≈ 24.9 µg/mL)

CC(=O)N1CCC[C@]12CC=CCCCC1(CCCC=CCCCOC(=O)N3CC[C@@](C(=O)N[C@@H](Cc4ccccc4Cl)C(=O)N[C@@H](Cc4csc5ccccc45)C(=O)N[C@H](C(N)=O)[C@@H](C)O)(C3)NC(=O)[C@H](CC(C)C)NC(=O)[C@H](Cc3ccccc3)NC(=O)[C@H](C)NC(=O)[C@H](C)NC(=O)[C@H](CC(=O)O)NC(=O)[C@H](CC(=O)O)NC1=O)NC(=O)[C@H](CC(C)(C)C)NC(=O)[C@H](CC(=O)O)NC2=O (stereo partly drawn) [I-1069, Ac-PL3-Asp-Npg-B5-Asp-Asp-Ala-Ala-Phe-Leu-PyrS2-2C1F-BztA-Thr-NH2]
IC50 [1, 3]: 920 nM | IC50 ([1]; read-out: beta-Catenin FP IC50): 920 nM | CHI Log D (CHI Log D procedure; pH 7.4): 2.113 | Solubility (Solubility in PBS): 10 µM (≈ 19.2 µg/mL)

CC(=O)N1CCC[C@]12CC=CCCCC1(CCCC=CCCCOC(=O)N3CC[C@@](C(=O)N[C@@H](Cc4ccccc4Cl)C(=O)N[C@@H](Cc4csc5ccccc45)C(=O)N[C@H](C(N)=O)[C@@H](C)O)(C3)NC(=O)[C@H](CC(C)C)NC(=O)[C@H](Cc3ccccc3)NC(=O)[C@H](C)NC(=O)[C@H](C)NC(=O)[C@H](CCC(=O)O)NC(=O)[C@H](CC(=O)O)NC1=O)NC(=O)[C@H](CC(C)(C)C)NC(=O)[C@H](CC(=O)O)NC2=O (stereo partly drawn) [I-1070, Ac-PL3-Asp-Npg-B5-Asp-Glu-Ala-Ala-Phe-Leu-PyrS2-2C1F-BztA-Thr-NH2]
IC50 [1, 3]: 1020 nM | IC50 ([1]; read-out: beta-Catenin FP IC50): 1020 nM | CHI Log D (CHI Log D procedure; pH 7.4): 2.135 | Solubility (Solubility in PBS): 10 µM (≈ 19.3 µg/mL)

CC(=O)N1CCC[C@]12CC=CCCCC1(CCCC=CCCCOC(=O)N3CC[C@@](C(=O)N[C@@H](Cc4ccccc4Cl)C(=O)N[C@@H](Cc4csc5ccccc45)C(=O)N[C@H](C(N)=O)[C@@H](C)O)(C3)NC(=O)[C@H](CC(C)C)NC(=O)[C@H](Cc3ccccc3)NC(=O)[C@H](C)NC(=O)[C@H](C)NC(=O)[C@H](CCC(=O)O)NC(=O)[C@H](CC(=O)O)NC1=O)NC(=O)[C@H](CC(C)(C)C)NC(=O)[C@H](CC(=O)O)NC2=O (stereo partly drawn) [I-1071, Ac-PL3-Asp-Npg-B5-Asp-Glu-Ala-Ala-Phe-Leu-PyrS2-2C1F-BztA-Thr-NH2]
IC50 [1, 3]: 1260 nM | IC50 ([1]; read-out: beta-Catenin FP IC50): 1260 nM | CHI Log D (CHI Log D procedure; pH 7.4): 2.218 | Solubility (Solubility in PBS): 33 µM (≈ 63.8 µg/mL)

CC(=O)N1CCC[C@]12CC=CCCCC1(CCCC=CCCCOC(=O)N3CC[C@@](C(=O)N[C@@H](Cc4ccccc4)C(=O)N[C@@H](Cc4csc5ccccc45)C(=O)N[C@@H](CCC(N)=O)C(N)=O)(C3)NC(=O)[C@H](CC(C)C)NC(=O)[C@H](Cc3ccccc3)NC(=O)[C@H](C)NC(=O)[C@H](C)NC(=O)[C@H](CCC(=O)O)NC(=O)[C@H](CC(=O)O)NC1=O)NC(=O)[C@H](CC(C)(C)C)NC(=O)[C@H](CC(=O)O)NC2=O (stereo partly drawn) [I-1073, Ac-PL3-Asp-Npg-B5-Asp-Glu-Ala-Ala-Phe-Leu-PyrS2-Phe-BztA-Gln-NH2]
IC50 [1, 3]: 409 nM | IC50 ([1]; read-out: beta-Catenin FP IC50): 409 nM | CHI Log D (CHI Log D procedure; pH 7.4): 1.831 | Solubility (Solubility in PBS): 31 µM (≈ 59.7 µg/mL)

CC(=O)N1CCC[C@]12CC=CCCCC1(CCCC=CCCCOC(=O)N3CC[C@@](C(=O)N[C@@H](Cc4ccccc4)C(=O)N[C@@H](Cc4csc5ccccc45)C(=O)N[C@@H](CCC(N)=O)C(N)=O)(C3)NC(=O)[C@H](CC(C)C)NC(=O)[C@H](Cc3ccccc3)NC(=O)[C@H](C)NC(=O)[C@H](C)NC(=O)[C@H](CCC(=O)O)NC(=O)[C@H](CC(=O)O)NC1=O)NC(=O)[C@H](CC(C)(C)C)NC(=O)[C@H](CC(=O)O)NC2=O (stereo partly drawn) [I-1074, Ac-PL3-Asp-Npg-B5-Asp-Glu-Ala-Ala-Phe-Leu-PyrS2-Phe-BztA-Gln-NH2]
IC50 [1, 3]: 498 nM | IC50 ([1]; read-out: beta-Catenin FP IC50): 498 nM | CHI Log D (CHI Log D procedure; pH 7.4): 1.92 | Solubility (Solubility in PBS): 34 µM (≈ 65.5 µg/mL)

CC(=O)N1CCC[C@]12CC=CCCCC1(CCCC=CCCCOC(=O)N3CC[C@@](C(=O)N[C@@H](Cc4ccccc4Cl)C(=O)N[C@@H](Cc4csc5ccccc45)C(=O)N[C@@H](CCC(N)=O)C(N)=O)(C3)NC(=O)[C@H](CC(C)C)NC(=O)[C@H](Cc3ccccc3)NC(=O)[C@H](C)NC(=O)[C@H](C)NC(=O)[C@H](CC(=O)O)NC(=O)[C@H](CC(=O)O)NC1=O)NC(=O)[C@H](CC1CCCCC1)NC(=O)[C@H](CC(=O)O)NC2=O (stereo partly drawn) [I-1075, Ac-PL3-Asp-Cha-B5-Asp-Asp-Ala-Ala-Phe-Leu-PyrS2-2C1F-BztA-Gln-NH2]
IC50 [1, 3]: 567 nM | IC50 ([1]; read-out: beta-Catenin FP IC50): 567 nM | CHI Log D (CHI Log D procedure; pH 7.4): 1.971 | Solubility (Solubility in PBS): 17 µM (≈ 33.5 µg/mL)
